According to US20120034296A1 (priority 2009, published 2012):
Counter-ions that a name gives are not always drawn. Like-named read-outs stand apart in the source and are kept apart here.

Legend:
[1] = tested on: Gadd45a, ATF3, SmagP, Cacna2d1; conditions: rat, in vivo

CN(C)CCC=C1c2ccccc2CCc2ccccc21 [amitriptyline]
expression of Gadd45a, ATF3, SmagP, Cacna2d1 in dorsal root ganglia [1]: dramatically upregulated

CCCCN1CCCCC1C(=O)Nc1c(C)cccc1C (stereo not shown) [bupivacaine solution, bupivacaine hydrochloride]
neurotoxicity / cytotoxicity (PC12 cells): increased with concentration and duration of exposure
myotoxicity (C2C12 cells): increased with concentration and duration of exposure

C[C@@H]1C[C@H]2[C@@H]3CCC4=CC(=O)C=C[C@]4(C)[C@@]3(F)[C@@H](O)C[C@]2(C)[C@@]1(O)C(=O)CO [dexamethasone]
decrease in survival (PC12 cells; rat): 20%
myotoxicity (C2C12 cells; mouse): not myotoxic at up to 2 days
survival (C2C12 cells; mouse): 80±5%
viability (C2C12 cells; mouse): > 90%
